Laboratory results as given in paper PMC9582160, “Inhibition of MRGPRX2 but not FcεRI or MrgprB2-mediated mast cell degranulation by a small molecule inverse receptor agonist” (Frontiers in Immunology, 2022).

Biological target: T1, MrgprB2 (Mus musculus, UniProt Q3KNA1)
T1 construct: endogenous receptor in mouse peritoneal mast cells
T1 sequence (Q3KNA1 1-338): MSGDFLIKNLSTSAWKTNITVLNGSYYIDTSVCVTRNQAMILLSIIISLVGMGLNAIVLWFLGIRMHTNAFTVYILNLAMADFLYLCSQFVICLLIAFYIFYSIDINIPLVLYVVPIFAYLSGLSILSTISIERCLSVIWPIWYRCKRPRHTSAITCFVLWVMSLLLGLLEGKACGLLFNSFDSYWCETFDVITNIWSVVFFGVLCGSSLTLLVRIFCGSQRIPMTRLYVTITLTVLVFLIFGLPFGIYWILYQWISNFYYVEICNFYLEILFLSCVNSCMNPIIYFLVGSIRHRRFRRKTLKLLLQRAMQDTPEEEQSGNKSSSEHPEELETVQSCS
Experiment: agonist: β-hexosaminidase release in WT peritoneal mast cells at […], absent in MrgprB2-/- cells
Type: cell-based

For C=CC[N+]1([C@H]2C[C@H]3[C@@H]4CC[C@H]5C[C@H](O)[C@@H](N6CCOCC6)C[C@]5(C)[C@H]4CC[C@]3(C)[C@H]2OC(C)=O)CCCC1 [rocuronium], which “agonist: β-hexosaminidase release in WT peritoneal mast cells at 20 μg/ml, absen” value is on record?
Its value is “mediated via MrgprB2 by demonstrating that PMCs cultured from MrgprB2^−/− mice do not respond to these agonists”.
